Test results from ChEMBL document CHEMBL3714716, “Modulators of the relaxin receptor 1” (2015).
Activity calls are given as the source filed them. The calls are words filed in the database; no cut-off is given here.

Key:
[1] = biological target: T1, Relaxin receptor 1 (Homo sapiens, UniProt Q9HBX9); experiment: Agonist activity at RXFP1 receptor (unknown origin) expressed in HEK293 cells assessed as stimulation of cAMP production incubated for 30 mins by TR-FRET based HTRF assay; format: functional, cell-based
T1 sequence (Q9HBX9 whole entry): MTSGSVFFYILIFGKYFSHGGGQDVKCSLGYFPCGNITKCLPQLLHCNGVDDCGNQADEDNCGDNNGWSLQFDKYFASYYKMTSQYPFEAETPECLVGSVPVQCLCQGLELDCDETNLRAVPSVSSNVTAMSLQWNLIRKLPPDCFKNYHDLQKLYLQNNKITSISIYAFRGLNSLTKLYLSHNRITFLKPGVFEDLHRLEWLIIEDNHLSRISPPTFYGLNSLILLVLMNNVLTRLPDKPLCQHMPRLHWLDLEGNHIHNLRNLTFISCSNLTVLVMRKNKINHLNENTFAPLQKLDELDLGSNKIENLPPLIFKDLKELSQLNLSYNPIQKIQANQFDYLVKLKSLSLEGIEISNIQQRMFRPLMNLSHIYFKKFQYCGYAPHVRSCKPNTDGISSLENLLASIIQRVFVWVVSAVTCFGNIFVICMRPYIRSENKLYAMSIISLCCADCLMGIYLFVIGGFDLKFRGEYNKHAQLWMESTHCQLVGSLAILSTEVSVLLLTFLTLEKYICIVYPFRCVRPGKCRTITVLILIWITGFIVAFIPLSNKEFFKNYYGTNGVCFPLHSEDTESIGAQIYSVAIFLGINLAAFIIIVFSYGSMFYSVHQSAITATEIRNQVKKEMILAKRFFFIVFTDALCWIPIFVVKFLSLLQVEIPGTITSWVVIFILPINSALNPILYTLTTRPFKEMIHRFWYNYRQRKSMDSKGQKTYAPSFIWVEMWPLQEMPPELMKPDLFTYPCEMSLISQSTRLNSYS

[2] = biological target: T2, Relaxin receptor 1 (Homo sapiens) (UniProt Q9HBX9); experiment: Agonist activity at RXFP1 receptor (unknown origin) expressed in HEK293 cells assessed as stimulation of cAMP production incubated for 30 mins by TR-FRET based HTRF assay relative to forskolin; format: functional, cell-based
T2 sequence (whole entry): T1 sequence (Q9HBX9 whole entry)

Compound | AC50 ([1]; hek293) | %max [2] | AC50 ([1]; read-out: AC50) [µM]
CN(C)CCOc1ccccc1C(=O)Nc1cccc(C(F)(F)F)c1 | Not Active | inactive | 
Cc1ccc(C(=O)Nc2ccccc2C(=O)Nc2cccc(C(F)(F)F)c2)cc1 |  | 85% | 4.71
CCOc1ccccc1C(=O)Nc1ccccc1C(=O)Nc1cccc(C#N)c1 |  | 96% | 0.666
O=C(Nc1ccccc1C(=O)Nc1cccc(C(F)(F)F)c1)c1ccc2ccccc2c1 |  | 85% | 14.9
O=C(Nc1cccc(C(F)(F)F)c1)c1ccccc1NC(=O)c1cccc2ccccc12 |  | 81% | 5.93
O=C(Nc1ccc(F)cc1)c1ccccc1NC(=O)C1CCCCC1 |  | 74% | 37.4
CCOc1ccccc1C(=O)Nc1ccncc1C(=O)Nc1cccc(S(=O)(=O)C(F)(F)F)c1 |  | 97% | 0.747
COc1cccc(NC(=O)c2ccccc2NC(=O)C2CCCCC2)c1 |  | 74% | 37.4
O=C(Nc1cccc(C(F)(F)F)c1)c1ccccc1-c1ccccc1 | Not Active | inactive | 
CC1CCC(C(=O)Nc2ccccc2C(=O)Nc2cccc(C(F)(F)F)c2)CC1 (centres undefined) |  | 92% | 2.36
O=C(Nc1ccccc1C(=O)Nc1cccc(C(F)(F)F)c1)c1ccccc1Cl |  | 92% | 3.74
CSc1cccc(NC(=O)c2ccccc2NC(=O)C2CCCCC2)c1 |  | 84% | 5.29
O=C(Nc1ccccc1C(=O)Nc1cccc(C(F)(F)F)c1)c1ccc(C(F)(F)F)cc1 |  | 93% | 5.93
O=C(Nc1cccc(-c2ccc(C(F)(F)F)cc2)c1)c1ccccc1NC(=O)C1CCCCC1 | Not Active | inactive | 
O=C(Nc1ccccc1C(=O)Nc1cccc(C(F)(F)F)c1)c1cc(C(F)(F)F)cc(C(F)(F)F)c1 |  | 94% | 4.2
O=C(Nc1cccc(C(F)(F)F)c1)c1ccccc1NC(=O)C12CC3CC(CC(C3)C1)C2 |  | 87% | 4.71
COc1ccccc1C(=O)N(C)c1ccccc1C(=O)N(C)c1cccc(C(F)(F)F)c1 | Not Active | inactive | 
O=C(Nc1cccc(I)c1)c1ccccc1NC(=O)C1CCCCC1 |  | 84% | 2.97
O=C(Nc1cccc(C(F)(F)F)c1)c1ccccc1NCC1CCCCC1 |  | 77% | 5.93

Compound | AC50 ([1]; hek293) | %max [2] | AC50 ([1]; read-out: AC50) [µM]
CCOc1ccccc1C(=O)Nc1cccc2c1C(=O)N(c1cccc(S(=O)(=O)C(F)(F)F)c1)C2 | Not Active | inactive | 
COc1ccccc1C(=O)Nc1ccccc1C(=O)Nc1cccc(-c2cccs2)c1 | Not Active | inactive | 
O=C(Nc1cccc(C(F)(F)F)c1)c1ccccc1Nc1cccc(C(F)(F)F)c1 |  | 93% | 4.2
CCOc1ccccc1C(=O)Nc1ccccc1CNc1cccc(S(=O)(=O)C(F)(F)F)c1 |  | 77% | 2.65
COc1ccccc1C(=O)Nc1ccccc1C(=O)Nc1cccc(SC)c1 |  | 94% | 1.33
CCOc1ccccc1C(=O)Nc1ccccc1C(=O)Nc1ccccn1 |  | 74% | 29.7
CCOc1ccccc1C(=O)Nc1ccccc1C(=O)Nc1cccc(SC(F)(F)F)c1 |  | 98% | 0.666
O=C(Nc1cc(C(F)(F)F)ccc1F)c1ccccc1NC(=O)C1CCCCC1 | Not Active | inactive | 
O=C(Nc1ccccc1[N+](=O)[O-])c1ccccc1NC(=O)C1CCCCC1 | Not Active | inactive | 
COc1ccccc1C(=O)Nc1ccc(C(=O)Nc2cccc(C(F)(F)F)c2)cc1 | Not Active | inactive | 
CCOc1ccccc1C(=O)Nc1cccnc1C(=O)Nc1cccc(S(=O)(=O)C(F)(F)F)c1 |  | 73% | 4.71
O=C(Nc1cccc(C(F)(F)F)c1)c1cccc(NC(=O)C2CCCCC2)c1 | Not Active | inactive | 
CS(=O)(=O)c1cccc(NC(=O)c2ccccc2NC(=O)C2CCCCC2)c1 |  | 34% | 118
CS(=O)(=O)c1cccc(C(=O)Nc2ccccc2C(=O)Nc2cccc(C(F)(F)F)c2)c1 |  | 77% | 9.4
CCOc1ccccc1-c1nc2c(C(=O)Nc3cccc(S(=O)(=O)C(F)(F)F)c3)cccc2[nH]1 | Not Active | inactive | 
O=C(Nc1ccccc1C(=O)Nc1cccc(C(F)(F)F)c1)c1cccc(Br)c1 |  | 97% | 1.67
O=C(Nc1ccccc1Br)c1ccccc1NC(=O)C1CCCCC1 | Not Active | inactive | 
O=C(Nc1ccccc1C(=O)Nc1cccc(C(F)(F)F)c1)c1ccccc1 |  | 64% | 1.32
C/C=C/c1cccc(NC(=O)c2ccccc2NC(=O)c2ccccc2OCC)c1 |  | 84% | 2.11

Compound | AC50 ([1]; hek293) | %max [2] | AC50 ([1]; read-out: AC50) [µM]
COc1cccc(OC)c1C(=O)Nc1ccccc1C(=O)Nc1cccc(C(F)(F)F)c1 |  | 42% | 7.47
O=C(NCc1ccco1)c1ccccc1NC(=O)C1CCCCC1 | Not Active | inactive | 
CC(C)(C)OC(=O)N1CCN(CCOc2ccccc2C(=O)Nc2cccc(C(F)(F)F)c2)CC1 | Not Active | inactive | 
CCOc1ccccc1-c1nc2ccccc2c(=O)n1-c1cccc(-c2nnn[nH]2)c1 |  | 36% | 149
Cc1ccc(CNC(=O)c2ccccc2NC(=O)C2CCCCC2)o1 |  | 31% | 149
Cc1cccc(C(=O)Nc2ccccc2C(=O)Nc2cccc(C(F)(F)F)c2)c1 |  | 92% | 3.74
CC(C)Oc1ccccc1C(=O)Nc1ccccc1C(=O)Nc1cccc(C(F)(F)F)c1 |  | 99% | 0.471
CC(C)(C)c1ccc(NC(=O)c2ccccc2NC(=O)C2CCCCC2)cc1 | Not Active | inactive | 
O=C(NCc1cccs1)c1ccccc1NC(=O)C1CCCCC1 |  | 40% | 118
CCOc1ccccc1C(=O)Nc1ccccc1C(=O)Nc1cccc(C(C)(C)C)c1 |  | 93% | 1.06
O=C(Nc1ccc2c(c1)CCC2)c1ccccc1NC(=O)C1CCCCC1 |  | 46% | 9.4
O=C(Nc1ccc([N+](=O)[O-])cc1)c1ccccc1NC(=O)C1CCCCC1 |  | 56% | 74.7
O=C(Nc1cccc(-c2cccs2)c1)c1ccccc1NC(=O)C1CCCCC1 |  | 31% | 471
Cc1ccc(NC(=O)c2ccccc2NC(=O)C2CCCCC2)cc1 |  | 32% | 187
CCOc1ccccc1C(=O)Nc1ccccc1C(=O)Nc1cccc(-c2nnn[nH]2)c1 | Not Active | inactive | 
COc1ccccc1C(=O)Nc1ccccc1C(=O)Nc1cccc(C(F)(F)F)c1 |  | 99% | 0.334
CC(C)(C)OC(=O)N1CCN(CCOc2ccccc2C(=O)Nc2ccccc2C(=O)Nc2cccc(C(F)(F)F)c2)CC1 |  | 94% | 1.33
C#Cc1cccc(NC(=O)c2ccccc2NC(=O)C2CCCCC2)c1 |  | 85% | 6.66
O=C(Nc1cccc(C(F)(F)F)c1)c1ccccc1NC(=O)c1ccccc1[N+](=O)[O-] |  | 30% | 188
